In patent US11624095B2, “Method of quantifying HIV reservoirs by induced transcription based sequencing” (priority 2017, dated 2023):

Key:
[1] = system: latent HIV proviruses in memory CD4+ T-cells of HIV-1-infected subjects; assay: EDITS assay, inducible HIV env RNA in resting memory cells after ex vivo activation; format: cell-based
Text: We developed a novel deep sequencing-based protocol (EDITS, Envelope Detection by Induced Transcription-based Sequencing) to measure RNA induction, capable of detecting inducible cell-associated HIV RNA. The EDITS Assay measures inducible HIV envelope RNA in infected cells, including patient-derived samples. The HIV envelope mRNA has been chosen because the splicing pattern covers a significant portion of the proviral genome, thus minimizing readouts from defective proviruses with large deletions (FIG. 1). Briefly, 1.25×10^6 resting memory cells from aviremic (<20 copies/ml) HIV-1-infected subjects are induced by one or more latency reversing agents (LRAs) and/or by engagement of the T-cell receptor (TCR).
FIG. 6 summarizes the protocol of the EDITS assay. Briefly, blood is collected from an HIV-infected individual and peripheral blood mononuclear cells (PBMCs) are purified. CD4^+ memory cells are negatively isolated using robotic magnetic bead isolation technology (Stemcell, 19157RF) and allowed to equilibrate in RPMI with 10% FBS, Primocin and 30 IU/ml of IL-2 overnight. 1.25 million cells are stimulated with one or more LRA (e.g., Concanavalin A) for 24 hours. […]
Fastq files are analyzed using a proprietary pipeline (bioinformatics tool) to not only quantify the amount of HIV-1 present in any given sample but also to determine viral diversity.

[2] = system: HIV in purified CD4+ T-cells from HIV-1-infected men and women; assay: modified EDITS assay quantifying spreading viral infection (HIV RNA+ cells after Con A stimulation); format: cell-based; conditions: for spreading infection / HIV RNA induction: 300 pg/ml 17β-estradiol, 9 days; for spreading infection: absence of raltegravir, women compared to men (p=0.00052); for HIV RNA induction: women compared to men (p=0.00039); for number of HIV RNA positive cells per million: CD4+ memory cells stimulated 9 days with Con A in presence of 1 μM raltegravir
Text: It is contemplated that the quantification of the latent HIV-1 can occur before, during, and after the course of a therapeutic regimen in order to determine the efficacy of a chosen therapeutic regimen. One way to assess the efficacy of the HIV-1 therapeutic is to compare the latent HIV-1 reactivation pre and post therapeutic administration. The amount of cell associated inducible HIV env RNA measured in the sample can then be compared to a control to determine the efficacy of the antiviral and/or LRAs. The control can be the amount of cell associated inducible HIV env RNA measured in infected cells prior to the administration of the one or more antiviral and/or latency reversing agents. In order to evaluate sex differences in CD4+ T-cells from male and female subjects, methods described herein can be modified to include an additional in vitro step allowing for the quantification of spreading viral infections in the presence of candidate agents. Therefore, in optional embodiments, purified CD4+ T-cells are stimulated with an HIV transcription inducing agent in the absence or presence of an antiretroviral agent to block spreading of HIV infection and a candidate agent. The amount of newly infected cells can be determined by measuring the increase in HIV RNA+ cells in the absence of the infection blocking agent compared to cells stimulated in the presence of the infection blocking agent.
The number of newly infected cells was determined, in accordance with the methods described herein, by measuring the HIV RNA+ cells in the absence of raltegravir after nine days. It was shown that the addition of 17β-estradiol blocked both HIV RNA induction and spreading infection in women compared to men, consistent with previous observations that the estrogen receptor-1 (ESR-1) can act as a repressor of HIV transcription.
CD4^+ T-cells were isolated from cryopreserved PBMCs and the frequencies of cells harboring total and integrated HIV-1 DNA (tHIV and iHIV) were measured relative to CD3 copy number. Cell associated (CA) unspliced (usHIV) RNA was quantified and multiply-spliced (msRNA) was measured using the identical semi-nested PCR with different primers. Low level viremia was quantified from seven milliliters of plasma with PCR amplification targeting a conserved, untranslated HIV-1 gag RNA sequence (the HMMCgag assay). Inducible HIV-1 RNA was measured using the TILDA assay; briefly, purified CD4^+ T-cells are stimulated maximally with PMA/ionomycin, serially diluted, lysed and HIV-1 msRNA measured with a two-step RT-PCR. Maximum likelihood estimates based on the number of positive wells are used to determine the frequency of cells harboring inducible HIV-1. A modified version of the EDITS assay was used to quantify spreading viral infections. Purified CD4^+ T-cells were stimulated with the mitogen Concanavalin A (Con A) in the absence or presence of 1 μM Raltegravir (to block spreading infection) and absence or presence of 300 pg/ml 17β-estradiol. Newly infected cells were determined after nine days as the increase in HIV RNA+ cells in the absence of Raltegravir.
As a complementary method to evaluate sex differences CD4^+ T-cells from a subset of men (n=6) and women (n=6) who underwent leukapheresis were evaluated for the level of inducible replication competent virus using a modified EDITS assay (FIG. 10). Purified CD4^+ memory cells were stimulated for 9 days to induce HIV transcription in the presence or absence of raltegravir and number of HIV RNA^+ cells was quantified by EDITS. […] In the absence of raltegravir, there were 348 RNA positive cells per million for the women and 457 RNA positive cells per million for the men, indicating spreading infection.

[3] = Con A stimulation, listed as estrogen

## C[C@]12CC[C@@H]3c4ccc(O)cc4CC[C@H]3[C@@H]1CC[C@@H]2O [17β-estradiol]
[1]; samples activated ex vivo by TCR induction in presence and absence of Estradiol (FIG. 4)
  proviral reactivation: potent inhibitor of proviral reactivation
[2]; Con A stimulation
  spreading infection: potently blocked
  HIV RNA induction: potently blocked
[2]; [3]
  spreading infection: potently blocked
  HIV RNA induction: potently blocked

## Concanavalin A
[1]; strong LRAs such as TCR activation or mitogen activation, applicant's estimate
  efficiency of activation of RNA from proviruses: greater than 75%

## Cc1nnc(C(=O)NC(C)(C)c2nc(C(=O)NCc3ccc(F)cc3)c(O)c(=O)n2C)o1 [raltegravir]
[2]; 1 μM raltegravir, 9 days culture, Con A stimulation
  viral spread: blocked
[2]; men (n=6)
  number of HIV RNA positive cells per million: 80 RNA positive cells per million
[2]; women (n=6)
  number of HIV RNA positive cells per million: 74 RNA positive cells per million
